Reference: US20090088441A1, “Quinoline Compounds” (priority 2007, published 2009)

Columns and labels:
[1] = biological target: T1, GABABR1a/GABABR2 heterodimer (Homo sapiens, UniProt O75899+Q9UBS5); test: GTPγS35 radioligand filtration-binding assay for determination of agonist potency; assay type: biochemical; conditions: membranes of CHO K1 Flp-In cells expressing GABABR1a/GABABR2; 30° C., 1 hour
T1 construct: expressed in transfected cells; membrane preparation
Description: (§1) The potency and efficacy of the compounds acting as agonists at the GABAB receptor was also determined in a automated GTPγS^35 radioligand filtration-binding assay.
(§2) The GABAB receptor is a G-protein coupled receptor. Binding of a ligand activates the receptor leading to recruitment of G-protein and a substitution of the G-protein bound GDP to GTP. The G-protein becomes active. The G-protein is inactivated by hydrolysis of GTP to GDP. G-proteins are membrane bound and therefore present in membrane preparations.
(§3) In the GTPγS^35 assay, GTP is not present but instead GTPγS^35 where one of the phosphate groups are substituted to a sulphur group which cannot be hydrolysed. Upon activation of the receptor, radiolabelled GTPγS^35 replaces the GDP. The complex cannot be inactivated and the radiolabelled complex is accumulating. At the end of the assay, the reaction mixture is filtered through a membrane-binding filter. Excess GTPγS^35 is removed by washing and the membrane bound S^35, which correlates to the degree of receptor activation, is measured with a β-Liquid Scintillation Counter.
The human GABABR1a was subcloned into pIRESneo3 (Clontech) using GABABR1a construct as a template (refseqN NM001470). GABABR2 was subcloned into pcDNA5/FRT (Invitrogen) using GABABR2 construct as a template (refseqN NM005458). The Kozak sequence GCCACC was introduced before the start codon in both constructs.
For generation of stable cell lines, CHO K1 Flp-In cells (Invitrogen) were grown in DMEM/F12 1:1 media supplemented with 10% FBS at 37° C. in a humidified CO2-incubator. The cells were detached with Accutase and 1.5 million cells were seeded into T75 flasks. After 24 h, transfection of the cells were performed with the GABABR2 construct. For generation of cell lines expressing GABABR2, GABABR2 plasmid (1 μg) and pOG44 from Invitrogen (9 μg) were mixed with 30 μl Lipofectamine 2000 in 600 μl OptiMEM for 20 minutes. The cells were exposed to transfection medium for 5 hours and was then replaced with culture medium. After 2 days 0.5 mg/ml Hygromycin were added to culture medium. The cells were cultured for an additional 10 days to establish a stable cell mix expressing GABABR2. For generation of a cell line expressing the GABABR1a/GABABR2 hetrodimer, GABABR1a plasmid DNA (8 μg) and Lipofectamine (30 μl) were mixed in 600 μl OptiMEM and incubated for 20 minutes before added to CHO-Flp-In cells expressing GABABR2. After 2 days additional selection agent was added (0.8 mg/ml Geneticin). The cells were cultured for another 10 days to generate a stable mixed population expressing the GABABR1a/GABABR2 heterodimer. The cell line was analyzed by GTPγS^35 assay with GABA as agonist.
GTPγS^35 radioligand filtration-binding assays were performed using an automated workstation at 30° C. for 1 hour in assay buffer (50 mM HEPES, 40 mM NaCl, 1 mM MgCl2×6H2O, 30 μg/mL Saponin, pH 7.4 at RT) containing 0.025 μg/μL of membrane protein (prepared from the cell line described above), 10 μM GDP and 0.55 nCi/μL GTPγS^35 in a final volume of 60 μL. The reaction was started by the addition of compounds (GABA was always included as a positive control), start concentration 100 μM dilution factor 3. The reaction was terminated and membranes collected by addition of ice-cold wash buffer (50 mM Tris-HCl, 5 mM MgCl2×6H2O, 50 mM NaCl, pH 7.4 at 4° C.) followed by rapid filtration under vacuum through a MultiScreen HTS 384 FB filter plate. Repeated washing of the filters with ice-cold wash buffer washed the unbound radioligand away. The filter plates were dried for 1½-2 hours at 50° C., then 8 μL scintillation liquid was added per well followed by incubation at RT for at least 20 minutes before bound radioactivity was determined using a β-Liquid Scintillation Counter (1450 Microbeta Trilux, Wallac, Finland)
100% activation (max) is calculated as the mean value for wells containing 1 mM GABA. […]

[2] = biological target: T2, GABAB(1A,2) receptor heterodimer (Homo sapiens, UniProt O75899+Q9UBS5); test: GTPγS35 radioligand filtration-binding assay for determination of PAM potency; assay type: biochemical; conditions: membranes of CHO-K1 cells expressing GABABR1a/GABABR2; GABA dose-response with 10, 1, 0.1 and 0.01 μM PAM; concentration reducing GABA's EC50 by 50%; read-out: Mean (EC50 derived) PAM EC50
T2 construct: expressed in transfected cells; membrane preparation
Description: The effect of GABA in an automated GTPγS^35 radioligand filtration-binding assay in CHO cells expressing the GABAB(1A,2) receptor heterodimer was studied in the presence or absence of the positive allosteric modulator test compounds.
as §1, §2, §3
GABABR1a and GABABR2 were cloned from human brain cDNA and subcloned into pCI-Neo (Promega) and pALTER-1 (Promega), respectively.
In order to optimise the Kozak consensus sequence of GABABR2, in situ mutagenesis was performed using the Altered Sites Mutagenesis kit according to manufacturer's instruction (Promega) with the following primer, 5′-[…]-3′. The optimised GABABR2 was then restricted from pALTER-1 with Xho I+Kpn I and subcloned into the mammalian expression vector pcDNA3.1 (−)/Zeo (Invitrogen) to produce the final construct, pcDNA3.1 (−)/Zeo-GABABR2.
For generation of stable cell lines, CHO-K1 cells were grown in Nut mix F-12 (Ham) media supplemented with 10% FBS, 100 U/ml Penicillin and 100 μg/ml Streptomycin at 37° C. in a humidified CO2-incubator. The cells were detached with 1 mM EDTA in PBS and 1 million cells were seeded in 100 mm petri dishes. After 24 hours the culture media was replaced with OptiMEM and incubated for 1 hour in a CO2-incubator.
For generation of a cell line expressing the GABABR1a/GABABR2 heterodimer, GABABR1a plasmid DNA ([…]) GABABR2 plasmid DNA (4 μg) and lipofectamine (24 μl) were mixed in 5 ml OptiMEM and incubated for 45 minutes at room temperature. […] After expansion, the GABAB receptor functional response was tested by measuring the GABAB receptor dependent release of intracellular calcium in a fluorescence imaging plate reader (FLIPR). […]

T2 sequence (Q9UBS5 15-961 limits assumed): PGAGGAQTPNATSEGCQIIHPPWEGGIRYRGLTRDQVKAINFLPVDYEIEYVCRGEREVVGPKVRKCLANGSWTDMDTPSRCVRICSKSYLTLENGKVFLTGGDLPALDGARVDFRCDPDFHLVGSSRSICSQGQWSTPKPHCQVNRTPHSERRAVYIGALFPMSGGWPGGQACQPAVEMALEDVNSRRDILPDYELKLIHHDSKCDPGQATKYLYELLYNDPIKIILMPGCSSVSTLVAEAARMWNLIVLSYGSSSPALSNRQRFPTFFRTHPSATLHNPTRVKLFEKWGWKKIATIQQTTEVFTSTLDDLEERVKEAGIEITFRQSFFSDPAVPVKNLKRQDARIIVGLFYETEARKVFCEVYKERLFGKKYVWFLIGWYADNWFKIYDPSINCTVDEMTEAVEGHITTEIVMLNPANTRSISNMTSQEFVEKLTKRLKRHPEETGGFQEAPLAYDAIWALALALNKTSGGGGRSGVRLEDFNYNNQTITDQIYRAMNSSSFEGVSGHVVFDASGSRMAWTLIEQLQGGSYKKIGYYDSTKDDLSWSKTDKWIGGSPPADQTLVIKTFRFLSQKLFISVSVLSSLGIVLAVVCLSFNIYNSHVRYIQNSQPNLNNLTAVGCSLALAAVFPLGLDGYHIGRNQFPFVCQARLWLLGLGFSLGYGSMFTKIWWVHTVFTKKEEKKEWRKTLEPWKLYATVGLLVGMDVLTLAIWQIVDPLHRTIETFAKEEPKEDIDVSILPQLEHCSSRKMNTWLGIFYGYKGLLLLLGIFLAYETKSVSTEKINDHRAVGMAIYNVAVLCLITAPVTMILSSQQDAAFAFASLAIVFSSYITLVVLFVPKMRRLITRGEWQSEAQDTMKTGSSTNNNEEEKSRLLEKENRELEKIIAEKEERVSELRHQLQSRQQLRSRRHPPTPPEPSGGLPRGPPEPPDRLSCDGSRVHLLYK
T2 sequence (O75899 42-941): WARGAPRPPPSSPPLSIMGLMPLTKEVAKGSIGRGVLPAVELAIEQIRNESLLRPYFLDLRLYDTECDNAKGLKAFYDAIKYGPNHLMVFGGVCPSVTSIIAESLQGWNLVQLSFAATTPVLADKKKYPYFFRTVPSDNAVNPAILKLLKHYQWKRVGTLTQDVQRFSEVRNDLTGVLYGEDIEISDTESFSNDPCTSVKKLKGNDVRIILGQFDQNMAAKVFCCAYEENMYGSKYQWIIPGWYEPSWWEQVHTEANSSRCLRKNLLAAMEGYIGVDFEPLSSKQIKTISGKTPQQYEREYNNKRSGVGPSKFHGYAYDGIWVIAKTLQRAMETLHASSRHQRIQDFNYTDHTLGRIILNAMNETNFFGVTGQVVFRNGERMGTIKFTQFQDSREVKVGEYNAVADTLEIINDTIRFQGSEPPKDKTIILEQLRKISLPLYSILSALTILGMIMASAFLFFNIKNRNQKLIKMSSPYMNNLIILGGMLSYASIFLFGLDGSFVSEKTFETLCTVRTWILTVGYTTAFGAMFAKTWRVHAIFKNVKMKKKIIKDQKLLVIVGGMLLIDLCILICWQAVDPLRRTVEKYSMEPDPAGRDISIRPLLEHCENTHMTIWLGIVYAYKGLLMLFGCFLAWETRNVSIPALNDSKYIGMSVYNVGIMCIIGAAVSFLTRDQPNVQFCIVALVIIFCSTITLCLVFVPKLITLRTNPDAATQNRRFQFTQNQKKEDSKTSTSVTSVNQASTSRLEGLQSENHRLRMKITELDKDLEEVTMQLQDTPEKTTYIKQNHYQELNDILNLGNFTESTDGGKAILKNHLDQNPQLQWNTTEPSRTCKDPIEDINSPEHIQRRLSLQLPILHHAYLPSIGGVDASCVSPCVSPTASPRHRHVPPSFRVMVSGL
T1 sequence (Q9UBS5 15-961 limits assumed): as the sequence (Q9UBS5 15-961 limits assumed) above
T1 sequence (O75899 42-941): as the sequence (O75899 42-941) above

An EC50 [1] of 1.3 µM and an EC50 [2] of 18 µM were found for `Cc1nc2ccc(N3CCCCC3)cc2c(-c2ccc(F)cc2)c1C(=O)OC(C)(C)C` [Example 22, tert-butyl 4-(4-fluorophenyl)-2-methyl-6-piperidin-1-ylquinoline-3-carboxylate] in this work.
